Test results from patent US20190364896A1, “SYNERGISTIC WEED CONTROL FROM APPLICATIONS OF PYRIDINE CARBOXYLIC ACID HERBICIDES AND ALS INHIBITORS” (Dow AgroSciences LLC, priority 2014, published 2019).
“And” between values parts separate entries of the source, which are not always exact repeats. Equal entries are not always repeated. Where two headings read alike, the source gives them in different places.

Key:
Assay in all cases: Postemergence herbicidal activity, greenhouse trial (visual injury 0-100%)
Assay type in all cases: in vivo
[1] = system: poinsettia (Euphorbia heterophylla, EPHHL); conditions: for % visual injury Obs: EPHHL
Procedure, shortened: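 Greenhouse-grown plants at the second to third true leaf stage were sprayed with two-way mixtures in 1.5% v/v Agri-dex crop oil concentrate at 187 L/ha; rates in g ae/ha for component (a) and g ai/ha for component (b). Injury scored visually 0–100% versus solvent-blank controls after 20–22 d, with expected mixture effects from Colby's equation.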

[2] = system: pigweed (Amaranthus retroflexus, AMARE); conditions: Amaranthus retroflexus, post-emergence, read-out: % visual injury Obs
Procedure, shortened: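 Seedlings were raised 7-36 d in a greenhouse, then treated postemergence at the second or third true leaf stage. Mixtures were applied overhead at 187 L/ha, and plants were sub-irrigated to avoid wash-off. Injury was rated visually 20-22 d later.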

[3] = system: rutabaga (Brassica napus var. napobrassica, BRSNA); conditions: 5 g ae/ha
Protocol: (§1) Seeds of the desired test plant species were planted in Sun Gro MetroMix® 306 planting mixture, which typically has a pH of 6.0 to 6.8 and an organic matter content of about 30 percent, in plastic pots with a surface area of 103.2 square centimeters (cm^2). […] The plants were grown for 7-36 days (d) in a greenhouse with an approximate 14-hour (h) photoperiod which was maintained at about 23° C. during the day and 22° C. during the night. Nutrients and water were added on a regular basis and supplemental lighting was provided with overhead metal halide 1000-Watt lamps as necessary. The plants were employed for testing when they reached the second or third true leaf stage.
(§2) Weighed amounts of technical material were dissolved in a volume of 97:3 volume per volume (v/v) acetone/dimethyl sulfoxide (DMSO) to stock solutions. […] The concentrated stock solutions were diluted with an aqueous mixture of 1.5% v/v of Agri-dex crop oil concentrate to provide the appropriate application rates. Compound requirements are based upon a 12 milliliter (mL) application volume at a rate of 187 liters per hectare (L/ha). Spray solutions of the experimental compound mixtures were prepared by adding the stock solutions to the appropriate amount of dilution solution to form a 12 mL spray solution in two-way combinations. Formulated compounds were applied to the plant material with an overhead Mandel track sprayer equipped with 8002E nozzles calibrated to deliver 187 L/ha over an application area of 0.503 square meters (m^2) at a spray height of 18 inches (43 centimeters (cm)) above average plant canopy. Control plants were sprayed in the same manner with the solvent blank. Application rates for component (a) are in g ae/ha, and application rates for component (b) are in g ai/ha.
(§3) The treated plants and control plants were placed in a greenhouse as described above and watered by sub-irrigation to prevent wash-off of the test compounds. After 20-22 d, the condition of the test plants as compared with that of the control plants was determined visually and scored on a scale of 0 to 100 percent where 0 corresponds to no injury and 100 corresponds to complete kill. The condition of the test plants was compared with that of the control plants as determined visually and scored on a scale of 0 to 100 percent, where 0 corresponds to no injury and 100 corresponds to complete kill. Colby's equation was used to determine the herbicidal effects expected from the mixtures.
(§4) Compound 1 was formulated as an EC and was combined with imazamox, imazamethabenz, imazapic, imazapyr or imazethapyr. The mixtures were applied to winter wheat (TRZAW) and/or maize (ZEAMX), and the phytotoxicity of the herbicidal compositions was measured. In addition, the efficacy of the herbicidal compositions on blackgrass (Alopecurus myosuroides, ALOMY), wild oat (Avena fatua, AVEFA), winter rape (Brassica napus, BRSNW), spring rape (Brassica napus, BRSNN), turnip (Brassica rapa, BRSRR), thistle (Cirsium arvense, CIRAR), large crabgrass (Digitaria sanguinalis, DIGSA), pigweed (Amaranthus retrollexus, AMARE), common lambsquarters (Chenopodium album L., CHEAL), poinsettia (Euphorbia heterophylla, EPHHL), ivyleaf morning-glory (Ipomoea hederacea, IPOHE), kochia (Kochia scoparia, KCHSC), wild buckwheat (Polygonum convolvulus, POLCO), grain sorghum (Sorghum vulgare, SORVU), chickweed (Stellaria media, STEME), wild pansy (Viola tricolor, VIOTR), sunflower (Helianthus annuus, HELAN), giant foxtail (Setaria faberi, SETFA), soybean (Glycine max, GLXMA), rutabaga (Brassica napus var. napobrassica, BRSNA) and barnyardgrass (Echinochloa crus-galli, ECHCG) was evaluated.

[4] = system: soybean (Glycine max, GLXMA)
Protocol: as §1, §2, §3, §4

[5] = system: turnip (Brassica rapa, BRSRR); conditions: 5 g ae/ha
Protocol: as §1, §2, §3, §4

[6] = system: large crabgrass (Digitaria sanguinalis, DIGSA)
[7] = system: brown mustard (Brassica juncea, BRSJU); conditions: Compound 1 5 g ae/ha

In the case of `Nc1c(F)c(-c2ccc3cc[nH]c3c2F)nc(C(=O)O)c1Cl` [Compound 1], the “% visual injury Obs” value ([1]; Compound 1 5 g ae/ha) is reported as 97%, the “% visual injury Obs” value ([1]; Compound 1 10 g ae/ha) is reported as 97% and the pest or weed control at 5 g/ha ([1]; Euphorbia heterophylla, post-emergence, 5 g ae/ha, read-out: % visual injury Obs) is reported as 97%. It also gave a pest or weed control at 10 g/ha ([1]; Euphorbia heterophylla, post-emergence, 10 g ae/ha, read-out: % visual injury Obs) of 97%, a pest or weed control at 5 g/ha ([2]; 5 g ae/ha) of 95% and a pest or weed control at 10 g/ha ([2]; 10 g ae/ha) of 97%. For the same compound, the pest or weed control at 5 g/ha ([2]; AMARE, Compound 1 5 g ae/ha) was 75%, the pest or weed control at 10 g/ha ([2]; AMARE, Compound 1 10 g ae/ha) was 97% and the “% visual injury Obs” value [3] was 65%. For the same compound, the “% visual injury Obs” value ([4]; 5 g ae/ha) was 95%, the “% visual injury Obs” value ([4]; 10 g ae/ha) was 100% and the “% visual injury Obs” value [5] was 50%. For the same compound, the “% visual injury Obs” value ([6]; 5 g ae/ha) was 5% and 0%, the “% visual injury Obs” value ([6]; 10 g ae/ha) was 10% and the “% visual injury Obs” value [7] was 60%.
